Source: US6603023B2 (priority 1996, dated 2003)
Read-outs that look alike come from different tables or passages of the source. Marks after values point to notes of the source that are not given here.

Legend:
MCF-7 = assay: SRB cytotoxicity, MCF-7; type: cell-based, human; details: Table 1C; SRB, 72 h; read-out: IC50
In short: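 Monolayer MCF-7 cultures exposed to six to seven drug concentrations in duplicate, then fixed with trichloroacetic acid and stained 30 min with 0.4% sulforhodamine B. Bound dye extracted with unbuffered Tris base, absorbance read at 570 nm; values derived by median-effect plot analysis.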

[1] = test system: PC-3 Human Prostate Carcinoma; assay: PC-3 xenograft; type: in vivo, nude mice; details: for Therapeutic effect Rank Order: PC-3; for Average Body Weight, Day 5: initial weight
[2] = test system: human mammary carcinoma MX-1 xenograft
Description: DMSO was used as a vehicle for epothilones. Each mouse received ≦40 μL DMSO in all experiments.
Athymic nude mice (nu/nu) were used for MX-1 and MCF-7/Adr human mammary carcinoma xenografts. Mice were obtained from Taconic Laboratory Animals and Service (Germantown, N.Y.: outbred, Swiss background).

[3] = 6 hr i.v. infusion: dEpoB 40, Taxol 24 mg/kg
[4] = PC-3 Prostate, dEpoB 40 mg/kg Q2D x 3, Taxol 15 mg/kg Q2D x 3
[5] = dEpoB 30 mg/kg 18 hr i.v. infusion, Taxol 16 mg/kg 6 hr infusion, VBL 2 and VP-16 25 mg/kg i.v. inj
[6] = dEpoB 50 mg/kg, 6 hr i.v. infusion
[7] = 15 mg/kg i.p. Q2Dx5 from day 7, day 11
[8] = 15 mg/kg i.p. Q2Dx5 from day 7, day 13
[9] = 15 mg/kg i.p. Q2Dx5 from day 7, day 15
[10] = 15 mg/kg i.p. Q2Dx5 from day 7, day 17
[11] = 25 mg/kg i.p. Q2Dx5 from day 7, day 11
[12] = 25 mg/kg i.p. Q2Dx5 from day 7, day 13
[13] = 25 mg/kg i.p. Q2Dx5 from day 7, day 15
[14] = 25 mg/kg i.p. Q2Dx5 from day 7, day 17
[15] = 35 mg/kg i.p. Q2Dx5 from day 9, day 13
[16] = 35 mg/kg i.p. Q2Dx5 from day 9, day 15
[17] = 35 mg/kg i.p. Q2Dx5 from day 9, day 17
[18] = 35 mg/kg i.p. Q2Dx5 from day 9, day 19
[19] = 35 mg/kg i.p. d8,10,12,14,16, day 10
[20] = 35 mg/kg i.p. d8,10,12,14,16, day 12
[21] = 35 mg/kg i.p. d8,10,12,14,16, day 14
[22] = 35 mg/kg i.p. d8,10,12,14,16, day 16
[23] = 35 mg/kg i.p. d8,10,12,14,16, day 18
[24] = 40 mg/kg i.p. d18-26, extended after d8-16, day 20

## C/C1=C/C[C@@H](/C(C)=C/c2csc(C)n2)OC(=O)C[C@H](O)C(C)(C)C(=O)[C@H](C)[C@@H](O)[C@@H](C)CCC1 [Desoxyepothilone B, desoxyepothilone B]
MCF-7
  IC50: 2.9 nM
[1]; [3]
  Average Body Weight (change), Day 9: -1.7 g
  Average Body Weight (change), Day 11: -3.4 g
  Average Body Weight (change), Day 13: -2.7 g
  Average Tumor Size (TC), Day 9: 0.40 TC
  Average Tumor Size (TC), Day 11: 0.19 TC
  Average Tumor Size (TC), Day 13: 0.12 TC
  Tumor Disappearance: 0/3
  Average Body Weight, Day 5: 28.3 g
[1]; i.v. infusion (order wraps over rows r24-r25)
  Therapeutic effect Rank Order: dEpoB >> VP-16
[1]; i.v./i.p. (order wraps over rows r11-r12)
  Therapeutic effect Rank Order: Taxol ® > dEpoB >>
[1]; [4]
  Lowest Average Tumor Size (T/C): 0.12 T/C
  Tumor Disappearance: 0
[1]; PC-3 Prostate, dEpoB 40 mg/kg Q2D x 3 vs Taxol 15 mg/kg Q2D x 3
  Therapeutic Effects dEpoB vs Taxol: <<
[1]; [5]
  Average Body Weight (change), Day 9: -2.2 g
  Average Body Weight (change), Day 11: -5.9 g
  Average Body Weight (change), Day 13: -5.8 g
  Average Tumor Size (TC), Day 9: 0.17 TC
  Average Tumor Size (TC), Day 11: 0.06 TC
  Average Tumor Size (TC), Day 13: 0.06 TC
  Tumor Disappearance: 0/3
  Average Body Weight, Day 5: 29.4 g
[1]; [6]
  Average Body Weight (change), Day 9: -2.1 g
  Average Body Weight (change), Day 11: -3.0 g
  Average Body Weight (change), Day 13: -2.6 g
  Average Tumor Size (TC), Day 9: 0.37 TC
  Average Tumor Size (TC), Day 11: 0.13 TC
  Average Tumor Size (TC), Day 13: 0.03 TC
  Tumor Disappearance: 0/3
  Average Body Weight, Day 5: 28.1 g
[2]; 15 mg/kg i.p. Q2Dx5 from day 7
  Toxicity Death: 0/6
[2]; [7]
  Average Body Weight Change: +0.8 g
  Average Tumor Size (T/C): 0.65
[2]; [8]
  Average Body Weight Change: +1.1 g
  Average Tumor Size (T/C): 0.46
[2]; [9]
  Average Body Weight Change: +1.6 g
  Average Tumor Size (T/C): 0.49**
[2]; [10]
  Average Body Weight Change: +1.5 g
  Average Tumor Size (T/C): 0.41**
[2]; 25 mg/kg i.p. Q2Dx5 from day 7
  Toxicity Death: 0/6
[2]; [11]
  Average Body Weight Change: +0.4 g
  Average Tumor Size (T/C): 0.38*
[2]; [12]
  Average Body Weight Change: +0.7 g
  Average Tumor Size (T/C): 0.11**
[2]; [13]
  Average Body Weight Change: +1.0 g
  Average Tumor Size (T/C): 0.05***
[2]; [14]
  Average Body Weight Change: +0.7 g
  Average Tumor Size (T/C): 0.04****
[2]; 25 mg/kg i.p. days 7-15
  mice tumor-free (no detectable tumor) on day 35: one out of six
[2]; 25 mg/kg i.p. days 7-15, day 17
  average tumor volume reduction: ≤ 96%
[2]; 25 mg/kg i.p. days 7-15, listed as dEpo B
  mice tumor-free (no detectable tumor) on day 35: #One out of six mice with no detectable tumor on day 35;
[2]; 35 mg/kg Q2Dx5 i.p. from day 8
  mice with no detectable tumor on day 16: two out of ten
[2]; 35 mg/kg d8-16 then 40 mg/kg Q2Dx5 from day 18
  mice with no detectable tumor on day 26: five out of ten
[2]; 35 mg/kg d8-16 then 40 mg/kg Q2Dx5 from day 18, of ten
  mice remaining tumor-free on day 60: three
[2]; 35 mg/kg d8-16 then 40 mg/kg d18-26 i.p.
  mice tumor-free up to day 80: 3/10
[2]; 35 mg/kg d8-16 then 40 mg/kg d18-26 i.p., sacrificed day 50
  mice with markedly suppressed tumors: 7/10
[2]; 35 mg/kg i.p. Q2Dx5 from day 8
  lethality: 0/10
  mice survived: 10/10
  mice with tumor non-detectable on day 18: 3 out of 10
  tumor volume reduction: 98%
[2]; 35 mg/kg i.p. Q2Dx5 from day 9
  Toxicity Death: 0/6
  Tumor Disapp.: 3/6
[2]; [15]
  Average Body Weight Change: -1.7 g
  Average Tumor Size (T/C): 0.35
[2]; [16]
  Average Body Weight Change: -2.1 g
  Average Tumor Size (T/C): 0.14
[2]; [17]
  Average Body Weight Change: -2.1 g
  Average Tumor Size (T/C): 0.04
[2]; [18]
  Average Body Weight Change: -2.4 g
  Average Tumor Size (T/C): 0.02
[2]; 35 mg/kg i.p. d8,10,12,14,16
  # Mice Died: 3/10
  Tumor Disappearance: 0/10
[2]; [19]
  Average Body Weight Change: -0.1 g
  Average Tumor Volume (T/C): 0.42
[2]; [20]
  Average Body Weight Change: +0.7 g
  Average Tumor Volume (T/C): 0.28
[2]; [21]
  Average Body Weight Change: -0.3 g
  Average Tumor Volume (T/C): 0.07
[2]; [22]
  Average Body Weight Change: -1.7 g
  Average Tumor Volume (T/C): 0.04
[2]; [23]
  Average Body Weight Change: -1.6 g
  Average Tumor Volume (T/C): 0.02
[2]; 40 mg/kg i.p. d18-26, extended after d8-16
  # Died: 0/10
[2]; 40 mg/kg i.p. d18-26, extended after d8-16, (5/10)
  Average Tumor Disappearance Duration (Day): 44(5/10) Day
[2]; [24]
  Average Body Weight Change: -1.7 g
  Tumor Disappearance: 2/10^b
[2]; 40 mg/kg i.p. d18-26, extended after d8-16, day 22
  Average Body Weight Change: -2.4 g
